The results in this text go back to patent US20200369674A1, “ANTI-PAIN COMPOUND AND PREPARATION METHOD THEREOF” (LUNAN PHARMACEUTICAL GROUP CORPORATION, priority 2017, published 2020).

Type in all cases: in vivo
Assay [1] has as its system ICR mice. Kind of assay: Hot plate test. The conditions noted are these: Mus musculus, po; 1 mg/kg intragastric, latency 2.0 hours after administration, hot plate 55° C.; read-out: PTE %. The method, then: (§1) ICR mice, 18-22 g, half of them being male and the other half being female, provided by the Department of Laboratory Animals, Peking University (License No.: SCXK (Beijing) 2016-0010).
The temperature of hot plate was adjusted to 55° C., and the responses of mouse such as licking hind feet and jumping were used as the observation indexes. The time from the placement of mice on copper plate to the appearance of the above responses was defined as latency time. The latency time was measured for three times 30 minutes before administration, and the average value thereof was used as basic threshold, or baseline latency (BL). The animals with a latency time greater than 15 s and less than 5 s were removed, and the residual mice were randomly grouped, 8 animals per group.
Vehicle control group (double-distilled water) and groups for samples to be tested (the compounds and doses thereof were shown in Table 1) were set. All drugs were dissolved in […] before administration, and given by intragastric administration. The latency time was measured 2.0 hours after administration. Percentage of Pain Threshold Elevated Rate (PTE %) of compound on mice was calculated according to the following formula:
PTE %=(latency time of test group−latency time of vehicle control group)/latency time of vehicle control group×100

Assay [2] has as its system ICR mice. Kind of assay: Xylene-induced mouse ear swelling test (Effect Example 4). The conditions noted are these: Mus musculus, po, 2 h; 1 mg/kg intragastric, 50 uL xylene two hours after administration; read-out: Inhibition rate (%). The method, then: as §1
ICR mice were randomly grouped, 8 mice per group, half of them being male and the other half being female. Vehicle control group (double-distilled water) and groups for samples to be tested (the compounds and doses thereof were shown in Table 4). All drugs were dissolved in double-distilled water immediately before administration, and given by intragastric administration at predetermined doses. Two hours after administration, 50 uL of xylene was smeared evenly on the inner and outer sides of right ear of mouse. After 30 minutes, the left and right ears of mouse were cut, and circular ear pieces of the same size were punched at the same position on the left and right ears, and weighed. The ear swelling inhibition rate of compound in mice was calculated according to the formula.
Inhibition rate %=(degree of ear swelling in vehicle control group−degree of ear swelling in test group)/degree of ear swelling in vehicle control group×100

Assay [3] deals with ICR mice. In words: Formalin experiment. Particulars: Mus musculus, po, 2 h; 1 mg/kg intragastric, 2.5% formalin two hours after administration, phase II 10-60 minutes; read-out: Phase II pain inhibition rate (%). The method, then:
as §1
ICR mice, half of them being male and the other half being female, were randomly grouped, 8 mice per group. Vehicle control group (double-distilled water) and groups for samples to be tested were set, in which the compounds and doses thereof were shown in Table 3. All drugs were dissolved in double-distilled water before administration, and given by intragastric administration at predetermined doses. Two hours after administration, the mice were injected with 20 ul of 2.5% formalin solution in the right hind foot, and the time (s) of licking or biting foot was recorded as an index of pain response, in which 0-5 minutes was phase I, 10-60 minutes was phase II, and the total observation time was 60 minutes. The phase II pain inhibition rate of compound in mice was calculated according to the following formula:
Inhibition rate %=(time of licking or biting foot in vehicle control group−time of licking or biting foot in test group)/time of licking or biting foot in vehicle control group×100

Assay [4] has as its system ICR mice. In words: Xylene-induced ear swelling test in mice (Effect Example 6). Particulars: 1 mg/kg i.g., 30 μL xylene one hour after administration; for Swelling degree: mean±SD. The method, then:
ICR mice, body weight 18 g-22 g, half of them being male and the other half being female, provided by the Department of Laboratory Animals, Peking University. The animals were raised in a standard environment: temperature 23±1° C., relative humidity 55±5%, light-dark cycle 12 h/12 h, and fed with standard pellet feed.
Mice were randomly divided into 5 groups, 8 mice per group, half of them being male and the other half being female. Vehicle control group (double-distilled water, i.g.), dexamethasone control group (2 mg/kg, i.g.), compound DXL-A-22 group (1 mg/kg, i.g.), and compound DXL-A-24 group (1 mg/kg, i.g.) were set. All drugs were dissolved in double-distilled water before administration, and given by intragastric administration at 0.1 mL/10 g. One hour after administration, 30 μL of xylene was evenly smeared on the inner and outer sides of right ear of mouse to cause inflammation. After 0.5 hour, the left and right ears of mouse were cut, and circular ear pieces of the same size were punched at the same position on the left and right ears using the punch (diameter 6 mm) respectively, and weighed for the weights of the left and right ear pieces. The difference between the weight of the right ear after applying xylene and the weight of the left ear without applying xylene was used as swelling degree index (i.e., swelling degree). The swelling degree was calculated according to formula (1). The intensity of anti-inflammatory effect was expressed as inhibition rate (%), and the inhibition rate (%) was calculated according to formula (2).
Swelling degree=weight of right ear piece−weight of left ear piece (1)
Inflammation inhibition rate (%)=(ear swelling degree in vehicle control group−ear swelling degree in drug group)/ear swelling degree in vehicle control group×100% (2)

For `Br.Brc1ccc(N2CC[N+]3(CCCC3)CC2)cc1` [DXL-A-22, 8-(4-bromophenyl)-5,8-diazaspiro[4.5]decan-5-ium bromide], the change in vivo at 1 mg/kg with ICR mice [1] was determined as 52.6%. For the same molecule, the inhibition in vivo at 1 mg/kg with ICR mice [2] was 47%. In addition, in the assay on ICR mice [3], the inhibition in vivo at 1 mg/kg came to 52.6%. Further, in the assay with ICR mice [4], the “Inhibition rate (%)” value is recorded as 42.62% and the “Swelling degree” value stood at 5.48 ± 0.16 mg.

With `FC(F)(F)c1ccc(N2CC[N+]3(CCCC3)CC2)cc1.[Br-]` [DXL-A-24, 8-(4-(trifluoromethyl)phenyl)-5,8-diazaspiro[4.5]decan-5-ium bromide], the change in vivo at 1 mg/kg with ICR mice [1] stood at 48.6%. The inhibition in vivo at 1 mg/kg in the assay with ICR mice [2] came out at 53.4%. Further, in the assay with ICR mice [3], the inhibition in vivo at 1 mg/kg is 50.2%. Also, in the assay on ICR mice [4], the “Inhibition rate (%)” value was determined as 51.41% and the “Swelling degree” value is reported as 4.64 ± 0.11 mg.
